What is called fraction unbound is the share of the substance not bound to proteins or other matrix. Low values mean little free substance, high ones much free substance. One may read the Ki as a measure of affinity in units of concentration, obtained from inhibition or displacement.

Here are results for three compounds from patent US7049321B2, “Methods and pharmaceutical compositions for treatment of central and peripheral nervous system disorders and compounds useful therefor” (Israel Institute for Biological Research, priority 2002, dated 2006).

A short description of data set [1]: CNS safety: general observation and Irwin test in rats. The class given is in vivo, rat. The protocol: AF292 was evaluated in rodents for possible effects on general behavior and other CNS related pharmacological effects. […] No behavioral or physical signs were observed 24 hours after administration. All rats were retained for 14 days, and throughout this retention period all rats appeared normal.

Data set [2] is described as follows: Protein binding, human plasma. The class given is in vitro ADME. The protocol:
(§1) Protein binding studies were carried out in human plasma, α1-glycoprotein, human serum albumin (HSA), and Dulbecco's Phosphate Buffered Saline (PBS). AF292 was added to a final concentration of 10 μM. […] (μM) and in human […] (AGP), (see Table 1).

A short description of a further data set: Protein binding, PBS. The note with it: 10 μM. The class given is in vitro ADME. How it is done:
as §1

Another data set addresses T1, M1 receptors (Rattus norvegicus, UniProt P08482).
T1 construct: from tissue; host or cells: rat cortical membranes
T1 sequence (P08482 1-460): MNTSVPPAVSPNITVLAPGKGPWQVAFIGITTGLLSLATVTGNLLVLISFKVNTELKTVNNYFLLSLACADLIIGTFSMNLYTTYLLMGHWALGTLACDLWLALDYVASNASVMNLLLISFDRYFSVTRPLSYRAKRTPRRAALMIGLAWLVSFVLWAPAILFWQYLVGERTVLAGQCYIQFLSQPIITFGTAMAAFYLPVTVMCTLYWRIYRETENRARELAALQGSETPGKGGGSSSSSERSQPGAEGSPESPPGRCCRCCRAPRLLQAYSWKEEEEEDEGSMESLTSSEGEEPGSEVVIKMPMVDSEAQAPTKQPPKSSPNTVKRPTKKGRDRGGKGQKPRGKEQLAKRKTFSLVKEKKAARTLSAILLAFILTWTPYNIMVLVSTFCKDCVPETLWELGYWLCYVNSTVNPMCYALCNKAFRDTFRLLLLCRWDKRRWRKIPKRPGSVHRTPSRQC
In words: [3H]PZ competition binding to rat cortical membranes. The conditions noted are these: for Ki: rat cortex. An excerpt:
Pirenzepine (PZ), a muscarinic antagonist, binds preferentially to M1 receptors while OXO-M binds to all mAChR subtypes non-selectively; the ratio between the Ki values for PZ versus that of OXO-M may be indicative of the selectivity of the tested compound. The smaller the ratio, the more M1 selective is the tested compound. […] The OXO-M/PZ ratio is ˜0.36 showing a moderately high selectivity for the M1 receptor.

For the next data set, the system named is naive rats. In words: Social memory (olfactory recognition) in naive rats. The class given is in vivo, Wistar rats. The conditions noted are these: 0.5, 1 and 5 mg/kg, p.o. The protocol:
12 Male Wistar rats, 400–530 gr (4–5 months old) were used. Rats were housed individually 14 days before testing. Juvenile Wistar rats 40–50 gr (at arrival) were kept in groups of 6 and served as social stimuli for the adult rats. Animals were kept at 21° C.±1, with an inverse light-dark cycle (light on from 2:00 P.M. to 2:00 A.M.). The sessions were conducted 7 hr into the dark part of the light/dark cycle, under red illumination.
Adult rats were placed in a dim illumination room 1.5 h before the beginning of the social test. All juveniles were isolated in cages for 30 min prior to the beginning of the experiment. At the beginning of testing, an unfamiliar juvenile rat was placed in the home cage of an adult rat for 5 min. The time spent by the adult rat in investigating the juvenile rat was recorded. The adult rat was then immediately (1–2 min) treated with vehicle or test compound. Two hours later, the same juvenile was presented to the same adult rat for another 5 min period, a time when normally the stimulus juvenile is no longer identified (i.e., the adult rat investigates the juvenile for the same amount of time as during the first presentation). […]
Time spent in social investigation of stimulus juvenile rat was measured (in sec) and then expressed for each animal as the ratio of the second exposure to the first exposure (Ratio of Investigation Duration (RID)). […]

In data set [3] the test system is cells transfected with M1 mAChR. In words: Apoptosis (DAPI, TUNEL, FACS) after starvation, Aβ or H2O2. The class given is cell-based, rat. The conditions noted are these: for Apoptosis after Aβ or H2O2 (DAPI): DAPI staining.
In another data set the test system is C57BL6J mice. In words: Morris water maze in normal hippocampus mice. The conditions noted are these: for Training, escape latency: 0.5 and 1 mg/kg i.p. (rivastigmine, nicotine 1 mg/kg); for Training, path length: AF150(S) only the higher dose; for Reversal test, swimming speed: AF150(S)-0.5 mg/kg, AF267B-1 mg/kg, rivastigmine, nicotine. The class given is in vivo. How it is done:
Each group of mice was randomly divided into 7 treatment groups (n=12-14/group). […] All tested compounds and saline were administered once a day for 4 days before starting the behavioral testing, and then for the duration of the 5-day experiment, 30 minutes before testing.
Training: Each mouse was trained for four consecutive days, four trials (one block) per day, in which the platform position remained constant and was located in the center of the southeast quadrant of the pool. Within each block of four trials, each mouse started at each of the starting locations, but the sequence of locations was randomly selected. A trial consisted of placing a mouse by hand into the water facing the wall of the pool at one of four starting locations, north, south, east or west, around the pool's perimeter. Escape latency (the time to find the platform), path length (the distance traveled by the mouse) and speed (the swimming rate of the mouse) were recorded on each trial by the monitoring system.
For each mouse, the path length, escape latency, and swimming speed of the four trials on each of the 4 training days were grouped into blocks (one block for each day). […] Specific comparisons were performed, using the simple main effects contrasts acalysis, which is specifically suited for testing significant interactions.
Transfer test. During trial No. 17, on the fourth day, the platform was entirely removed from the pool (a probe trial). In this trial, the mouse was placed into the water for a limited period (30 s), and its spatial bias was measured by recording the relative distribution of escape latency and path length over the four quadrants of the pool.
Reversal test. During trials 18–21, on the fifth day, the platform position was changed to the northwest quadrant, opposite to the training quadrant. Thus, during reversal learning, the platform location was moved relative to the configuration of objects within the room, but the pool occupied the same place within the room throughout the entire experiment. Testing of the rats and measures taken were the same as in training.
For each mouse, the escape latency, path length and swimming speed of the reversal test (trials No. 18–21) were grouped into one block.

The subject of data set [4] is rat primary hippocampal cell cultures. Description: APPs secretion in rat primary hippocampal cell cultures. The note with it: 100 μm; culture not given. The class given is cell-based.

The structures appear in SMILES notation.

As to `CC[C@@H]1SC2(CCNCC2)NC1=O` [AF292, (S)-2-Ethyl-1-thia-4,8-diaza-spiro[4.5]decan-3-one], the “Physical or behavioral signs (Irwin test)” value in data set [1] (1, 10, 30, 60, 100 mg/kg, p.o.) is “No significant physical or behavioral signs”. The fraction unbound at 10 μM in data set [2] came to 0.65. Moreover, in the data set “Protein binding, PBS”, the “Protein Binding” value is 0% and PBS = 0%. Besides, at M1 receptors, the OXO-M/PZ ratio is around 0.36 and the Ki was determined as 1640 nM.

For `CC1=NCC2(CCN(C)CC2)S1` [AF150(S), 2,8-Dimethyl-1-thia-3,8-diaza-spiro[4.5]dec-2-ene], in the data set with naive rats, the “Investigation time of the same juvenile (RID)” value is on record as “decreased the investigation time”. Further, in data set [3] (100 μM, 25 μM β-amyloid 25–35), the “Apoptosis, TUNEL” value is reported as “able to block the apoptosis”. Further, the “Apoptosis after Aβ or H2O2 (DAPI)” value in data set [3] is reported as “protect these cells from apoptosis”. In addition, in the data set on C57BL6J mice, the “Training, escape latency” value is recorded as “increased the escape latencies”; the “Training, path length” value is “impaired the path length”; the “Reversal test, swimming speed” value is “significantly decreased”. The “Reversal test, escape latency” value in the data set on C57BL6J mice (AF150(S) 0.5 mg/kg) is recorded as “impaired the escape latency”. For the same compound, in the data set with C57BL6J mice (mouse, in vivo), the “Training, swimming speed” value was “impaired the swimming speed” and the “Transfer test, spatial bias” value was “partial spatial bias”. Also, the “APPs secretion, fold over control (agonists vs CCh)” value in data set [4] amounted to 2.8 fold.

Regarding `CC[C@@H]1SC2(CCN(C)CC2)NC1=O` [AF267B, (S)-2-ethyl-8-methyl-1-thia-4,8-diaza-spiro[4.5]decan-3-one], in data set [1] (100 mg/kg), the “IRWIN TEST, duration of signs” value is “duration 3–6 hrs.)” and the “IRWIN TEST, onset of signs” value was determined as 0.5 h. In data set [1] (100 mg/kg p.o.), the “IRWIN TEST, signs” value is 100 mg/kg: abnormalities of carriage, and apathy, decreased corneal reflex, diarrhea, and reduced grooming, increased urination, and salivation, lacrimation & and chromodacryorrhea, reduced locomotor and activity, passivity, decreased respiration, and reduced startle response. In data set [1] (1 & 10 mg/kg, p.o.), the “IRWIN TEST, gross behavior & physiological state” value was 1 & 10 no effect on gross behavior. Further, in data set [1] (p.o.), the “Chromodacryorrhea, dose” value is listed as “Chromodacryorrhea: 100 mg/kg, p.o”; the “Convulsion, dose” value is “Convulsion: 50 mg/kg, p.o”; the “Gnawing, dose” value is “Gnawing; 50 mg/kg, p.o”; the “Hypothermia, dose” value is on record as “Hypothermia: 50 mg/kg, p.o”. In data set [1] (p.o.), the “Lacrimation, dose” value was “Lacrimation: 50 mg/kg, p.o”; the “Mydriasis, dose” value is given as “Mydriasis: 25 mg/kg, p.o”; the “Salivation, dose” value was “Salivation: 40 mg/kg, p.o”; the “Sedation, dose” value was “Sedation: 100 mg/kg, p.o”. In addition, the “Dose at which salivation and lacrimation begin” value in data set [1] (po, first hour) was “about 40 mg/kg”. Besides, the “Investigation time of the same juvenile (RID)” value with naive rats was “decreased the investigation time”. In data set [2], this compound displayed a fraction unbound at 10 μM of 0.75. In addition, the “Apoptosis after Aβ or H2O2 (DAPI)” value in data set [3] is on record as “protect these cells from apoptosis”. Further, in the data set on C57BL6J mice, the “Training, escape latency” value is reported as “did not significantly affect”; the “Training, path length” value is recorded as “neither AF267B nor rivastigmine had any effect”; the “Reversal test, swimming speed” value is on record as “significantly decreased”. For the same compound, the “Training, swimming speed” value with C57BL6J mice (mouse, in vivo) is reported as “no such effect”. Besides, in data set [4], the “APPs secretion, fold over control (agonists vs CCh)” value was 2.8 fold. The “Protein Binding” value in “Protein binding, PBS” was “PBS = 0%”. Moreover, at M1 receptors, the Ki is 3740 ± 590 nM.
